The source of these data is US20250382344A1, “Soluble GLP1/GIP/NPY2 Receptor Triple Agonists” (Boehringer Ingelheim International GmH, priority 2024, published 2025).

The structures appear in SMILES notation. Read-outs that look alike come from different tables or passages of the source.

A short description of data set [1]: Solubility in 0.1 M phosphate buffer at pH 7. The class given is physicochemical. As to conditions: 0.1 M phosphate buffer at pH 7, 10 mg/mL final peptide concentration, shaking 2 hours at room temperature, peptides as TFA-salts, measured sample pH 6.5-7.0; for solubility: read-out: Solubility.
The nature of data set [2]: Mouse PK after intravenous application. As to conditions: plasma, male NMRI mice, intravenous 30-60 nmol/kg, non-compartmental analysis. Format: in vivo. As to the method:
Pharmacokinetic parameters of the peptides were determined after intravenous application to NMRI mice (Naval Medical Research Institute mice). Male NMRI mice were obtained from Janvier Laboratories (France) weighing 30 g to 40 g. Mice were housed in standard cages with a 12:12 hours light:dark cycle and standard food and water access ad libitum. Each test peptide was dissolved in 50 mM phosphate buffer (pH 7.4)/3.5% mannitol. Intravenous application of 30-60 nmol/kg was performed via the tail vein. Serial blood samples from conscious mice were collected from the saphenous vein in EDTA-containing vials at different time points up to 56 hours post-dosing. Subsequently, plasma was prepared by centrifugation for 5 minutes at approximately 5000 rpm and stored at −20° C. until quantification of the peptide plasma levels by liquid chromatography mass spectrometry (LC-MS). Individual plasma concentration-time profiles were analysed by a non-compartmental approach and the resulting pharmacokinetic parameters were calculated.

Another data set addresses T1, hGLP1R (Homo sapiens, UniProt P43220).
T1 construct: expressed in transfected cells; host or cells: HEK-293 CRE-luciferase reporter cells
The data set is described as follows: hGLP1R CreLuc assay in 0.5% and 100% plasma (HEK-293 CRE-luciferase reporter cells). The class given is cell-based. Conditions: HEK-293 reporter cells. In general terms: In a reporter assay the amount or activity of a reporter protein is the signal.

For a further data set, the target named is T2, hGIPR (Homo sapiens, UniProt P48546).
T2 construct: expressed in transfected cells; host or cells: CHO CRE-luciferase reporter cells
T2 sequence (P48546 22-466): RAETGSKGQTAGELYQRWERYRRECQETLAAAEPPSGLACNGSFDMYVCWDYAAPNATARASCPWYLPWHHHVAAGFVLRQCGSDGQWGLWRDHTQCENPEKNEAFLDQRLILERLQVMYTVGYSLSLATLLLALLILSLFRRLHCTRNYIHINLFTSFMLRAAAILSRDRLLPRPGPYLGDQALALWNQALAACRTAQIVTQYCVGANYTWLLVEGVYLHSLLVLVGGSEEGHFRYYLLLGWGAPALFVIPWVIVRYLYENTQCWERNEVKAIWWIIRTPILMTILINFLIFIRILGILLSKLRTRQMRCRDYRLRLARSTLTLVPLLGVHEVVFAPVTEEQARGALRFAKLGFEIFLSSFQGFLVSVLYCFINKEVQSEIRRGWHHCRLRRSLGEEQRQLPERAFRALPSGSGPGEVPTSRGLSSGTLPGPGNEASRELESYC
Kind of data set: hGIPR CreLuc assay in 0.5% and 100% plasma (CHO CRE-luciferase reporter cells). Format: cell-based.

Setting [3] is: 0.5% human plasma, read-out: hGLP1R 0.5% hP.
[4] abbreviates: 0.5% human plasma, read-out: hGIPR 0.5% hP.

T1 sequence (P43220 24-463): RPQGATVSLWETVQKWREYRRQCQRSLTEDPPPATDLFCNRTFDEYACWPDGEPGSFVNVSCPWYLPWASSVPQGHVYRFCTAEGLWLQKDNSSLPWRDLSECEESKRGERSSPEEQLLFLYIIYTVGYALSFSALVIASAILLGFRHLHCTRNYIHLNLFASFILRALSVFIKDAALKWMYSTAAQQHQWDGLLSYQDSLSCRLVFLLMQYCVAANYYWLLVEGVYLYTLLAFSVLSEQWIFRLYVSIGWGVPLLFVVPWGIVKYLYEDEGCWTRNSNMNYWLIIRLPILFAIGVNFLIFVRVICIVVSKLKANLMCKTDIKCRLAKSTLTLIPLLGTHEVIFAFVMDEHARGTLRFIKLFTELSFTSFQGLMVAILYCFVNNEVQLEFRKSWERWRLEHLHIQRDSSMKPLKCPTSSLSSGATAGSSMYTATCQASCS

`CC[C@H](C)[C@H](NC(=O)[C@H](CC(C)C)NC(=O)[C@H](Cc1c[nH]cn1)NC(=O)[C@H](CCCNC(=N)N)NC(=O)[C@@H](NC(=O)[C@H](Cc1ccccc1)NC(=O)[C@H](C)NC(=O)C(C)(C)NC(=O)[C@H](CCC(N)=O)NC(=O)[C@H](C)NC(=O)[C@H](CCC(N)=O)NC(=O)[C@H](CCCCN)NC(=O)[C@H](CCC(=O)O)NC(=O)[C@H](CC(C)C)NC(=O)C(C)(C)NC(=O)[C@@H](NC(=O)[C@H](CO)NC(=O)[C@H](Cc1ccc(O)cc1)NC(=O)[C@H](CC(=O)O)NC(=O)[C@H](CO)NC(=O)[C@@H](NC(=O)[C@H](Cc1ccccc1)NC(=O)[C@@H](NC(=O)CNC(=O)[C@H](CCC(=O)O)NC(=O)C(C)(C)NC(=O)[C@@H](N)Cc1ccc(O)cc1)[C@@H](C)O)[C@@H](C)O)[C@@H](C)CC)C(C)C)C(=O)N[C@@H](CC(N)=O)C(=O)N[C@@H](CCCCNC(=O)CCCCCNC(=O)CC[C@H](NC(=O)CC[C@H](NC(=O)CC[C@H](NC(=O)CC[C@H](NC(=O)CC[C@H](NC(=O)CCCCCCCCCCCCCCCCC(=O)O)C(=O)O)C(=O)O)C(=O)O)C(=O)O)C(=O)O)C(=O)N[C@@H](CC(C)C)C(=O)N[C@H](C(=O)N[C@@H](CCCNC(=N)N)C(=O)N[C@@H](CCC(N)=O)C(=O)N[C@@H](CCCNC(=N)N)C(=O)N[C@@H](Cc1ccc(O)cc1)C(N)=O)[C@@H](C)O` [Compound 69, Y-Aib-E-G-T-F-T-S-D-Y-S-I-Aib-L-E-K-Q-A-Q-Aib-A-F-V-R-H-L-I-N-K(1,3)-L-T-R-Q-R-Y-NH2.C18DA-gGlu-gGlu-gGlu-gGlu-gGlu-AHX(1,2)]: the solubility (commonly the concentration that dissolves in the medium under given conditions) in data set [1] turned out to be 4800 µg/mL. Also, the MRT (in general, the average time that molecules of a dose stay in the body) in data set [2] was 4.6 h.
Taken in the same sequence, the figures for `CC[C@H](C)[C@H](NC(=O)[C@H](CC(C)C)NC(=O)[C@H](Cc1c[nH]cn1)NC(=O)[C@H](CCCNC(=N)N)NC(=O)[C@@H](NC(=O)[C@H](Cc1ccccc1)NC(=O)[C@H](C)NC(=O)C(C)(C)NC(=O)[C@H](CCC(N)=O)NC(=O)[C@H](C)NC(=O)[C@H](CCC(N)=O)NC(=O)[C@H](CCCCN)NC(=O)[C@H](CC(=O)O)NC(=O)[C@H](CC(C)C)NC(=O)C(C)(C)NC(=O)[C@@H](NC(=O)[C@H](CO)NC(=O)[C@H](Cc1ccc(O)cc1)NC(=O)[C@H](CC(=O)O)NC(=O)[C@H](CO)NC(=O)[C@@H](NC(=O)[C@H](Cc1ccccc1)NC(=O)[C@@H](NC(=O)CNC(=O)[C@H](CCC(=O)O)NC(=O)C(C)(C)NC(=O)[C@@H](N)Cc1ccc(O)cc1)[C@@H](C)O)[C@@H](C)O)[C@@H](C)CC)C(C)C)C(=O)N[C@@H](CC(N)=O)C(=O)N[C@@H](CCCCNC(=O)[C@@H](N)CCCCNC(=O)CC[C@H](NC(=O)[C@H](CCC(=O)O)NC(=O)CC[C@H](NC(=O)CC[C@H](NC(=O)CC[C@H](NC(=O)CC[C@H](NC(=O)CCCCCCCCCCCCCCCCCCC(=O)O)C(=O)O)C(=O)O)C(=O)O)C(=O)O)C(=O)O)C(=O)NC(C)(C)C(=O)N[C@H](C(=O)N[C@@H](CCCNC(=N)N)C(=O)N[C@@H](CCC(N)=O)C(=O)N[C@@H](CCCNC(=N)N)C(=O)N[C@@H](Cc1ccc(O)cc1)C(N)=O)[C@@H](C)O` [Compound 74, Y-Aib-E-G-T-F-T-S-D-Y-S-I-Aib-L-D-K-Q-A-Q-Aib-A-F-V-R-H-L-I-N-K(1,3)-Aib-T-R-Q-R-Y-NH2.C20DA-gGlu-gGlu-gGlu-gGlu-gGlu-gGlu-eLys(1,2)] were 8600 µg/mL and 16.4 h.
Consider `CC[C@H](C)[C@H](NC(=O)[C@H](CC(C)C)NC(=O)[C@H](Cc1c[nH]cn1)NC(=O)[C@H](CCCNC(=N)N)NC(=O)[C@@H](NC(=O)[C@H](Cc1ccccc1)NC(=O)[C@H](C)NC(=O)C(C)(C)NC(=O)[C@H](CCC(N)=O)NC(=O)[C@H](C)NC(=O)[C@H](CCC(N)=O)NC(=O)[C@H](CCCCN)NC(=O)[C@H](CCC(=O)O)NC(=O)[C@H](CC(C)C)NC(=O)C(C)(C)NC(=O)[C@@H](NC(=O)[C@H](CO)NC(=O)[C@H](Cc1ccc(O)cc1)NC(=O)[C@H](CC(=O)O)NC(=O)[C@H](CO)NC(=O)[C@@H](NC(=O)[C@H](Cc1ccccc1)NC(=O)[C@@H](NC(=O)CNC(=O)[C@H](CCC(=O)O)NC(=O)C(C)(C)NC(=O)[C@@H](N)Cc1ccc(O)cc1)[C@@H](C)O)[C@@H](C)O)[C@@H](C)CC)C(C)C)C(=O)N[C@@H](CC(N)=O)C(=O)N[C@@H](CCCCNC(=O)CC[C@H](NC(=O)CC[C@H](NC(=O)CC[C@H](NC(=O)CC[C@H](NC(=O)CCCCCCCCCCCCCCCCC(=O)O)C(=O)O)C(=O)O)C(=O)O)C(=O)O)C(=O)NC(C)(C)C(=O)N[C@H](C(=O)N[C@@H](CCCNC(=N)N)C(=O)N[C@@H](CCC(N)=O)C(=O)N[C@@H](CCCNC(=N)N)C(=O)N[C@@H](Cc1ccc(O)cc1)C(N)=O)[C@@H](C)O` [Compound 77, Y-Aib-E-G-T-F-T-S-D-Y-S-I-Aib-L-E-K-Q-A-Q-Aib-A-F-V-R-H-L-I-N-K(1,3)-Aib-T-R-Q-R-Y-NH2.C18DA-gGlu-gGlu-gGlu-gGlu(1,2)], for which the EC50 is 0.4 nM on hGLP1R (setting [3]); 1.8 nM at hGLP1R (100% human plasma, read-out: hGLP1R 100% hP); 0.3 nM on hGIPR (setting [4]). Moreover, the solubility at 2 h in data set [1] stood at 400 µg/mL. The compound also showed an MRT in data set [2] of 7.4 h.
Regarding `CC[C@H](C)[C@H](NC(=O)[C@H](CC(C)C)NC(=O)[C@H](Cc1c[nH]cn1)NC(=O)[C@H](CCCNC(=N)N)NC(=O)[C@@H](NC(=O)[C@H](Cc1ccccc1)NC(=O)[C@H](CCC(=O)O)NC(=O)C(C)(C)NC(=O)[C@H](CCC(N)=O)NC(=O)[C@H](C)NC(=O)[C@H](CCC(N)=O)NC(=O)[C@H](CCCCN)NC(=O)[C@H](CCC(=O)O)NC(=O)[C@H](CC(C)C)NC(=O)C(C)(C)NC(=O)[C@@H](NC(=O)[C@H](CO)NC(=O)[C@H](Cc1ccc(O)cc1)NC(=O)[C@H](CC(=O)O)NC(=O)[C@H](CO)NC(=O)[C@@H](NC(=O)[C@H](Cc1ccccc1)NC(=O)[C@@H](NC(=O)CNC(=O)[C@H](CCC(=O)O)NC(=O)C(C)(C)NC(=O)[C@@H](N)Cc1ccc(O)cc1)[C@@H](C)O)[C@@H](C)O)[C@@H](C)CC)C(C)C)C(=O)N[C@@H](CC(N)=O)C(=O)N[C@@H](CCCCNC(=O)CC[C@H](NC(=O)CC[C@H](NC(=O)CC[C@H](NC(=O)CC[C@H](NC(=O)CCCCCCCCCCCCCCCCC(=O)O)C(=O)O)C(=O)O)C(=O)O)C(=O)O)C(=O)NC(C)(C)C(=O)N[C@H](C(=O)N[C@@H](CCCNC(=N)N)C(=O)N[C@@H](CCC(N)=O)C(=O)N[C@@H](CCCNC(=N)N)C(=O)N[C@@H](Cc1ccc(O)cc1)C(N)=O)[C@@H](C)O` [Compound 79, Y-Aib-E-G-T-F-T-S-D-Y-S-I-Aib-L-E-K-Q-A-Q-Aib-E-F-V-R-H-L-I-N-K(1,3)-Aib-T-R-Q-R-Y-NH2.C18DA-gGlu-gGlu-gGlu-gGlu(1,2)], the solubility in data set [1] was found to be 4200 µg/mL. In data set [2], this compound returned an MRT of 7 h.
`CC[C@H](C)[C@H](NC(=O)[C@H](CC(C)C)NC(=O)[C@H](Cc1c[nH]cn1)NC(=O)[C@H](CCCNC(=N)N)NC(=O)[C@@H](NC(=O)[C@H](Cc1ccccc1)NC(=O)[C@H](C)NC(=O)C(C)(C)NC(=O)[C@H](CCC(N)=O)NC(=O)[C@H](C)NC(=O)[C@H](CCC(N)=O)NC(=O)[C@H](CCCCN)NC(=O)[C@H](CCC(=O)O)NC(=O)[C@H](CC(C)C)NC(=O)C(C)(C)NC(=O)[C@@H](NC(=O)[C@H](CO)NC(=O)[C@H](Cc1ccc(O)cc1)NC(=O)[C@H](CC(=O)O)NC(=O)[C@H](CO)NC(=O)[C@@H](NC(=O)[C@H](Cc1ccccc1)NC(=O)[C@@H](NC(=O)CNC(=O)[C@H](CCC(=O)O)NC(=O)C(C)(C)NC(=O)[C@@H](N)Cc1ccc(O)cc1)[C@@H](C)O)[C@@H](C)O)[C@@H](C)CC)C(C)C)C(=O)N[C@@H](CC(N)=O)C(=O)N[C@@H](CCCCNC(=O)[C@@H](N)CCCCNC(=O)CC[C@H](NC(=O)CC[C@H](NC(=O)CC[C@H](NC(=O)CC[C@H](NC(=O)CC[C@H](NC(=O)CC[C@H](NC(=O)CC[C@H](NC(=O)CCCCCCCCCCCCCCCCC(=O)O)C(=O)O)C(=O)O)C(=O)O)C(=O)O)C(=O)O)C(=O)O)C(=O)O)C(=O)NC(C)(C)C(=O)N[C@H](C(=O)N[C@@H](CCCNC(=N)N)C(=O)N[C@@H](CCC(N)=O)C(=O)N[C@@H](CCCNC(=N)N)C(=O)N[C@@H](Cc1ccc(O)cc1)C(N)=O)[C@@H](C)O` [Compound 121, Y-Aib-E-G-T-F-T-S-D-Y-S-I-Aib-L-E-K-Q-A-Q-Aib-A-F-V-R-H-L-I-N-K(1,3)-Aib-T-R-Q-R-Y-NH2.C18DA-gGlu-gGlu-gGlu-gGlu-gGlu-gGlu-gGlu-eLys(1,2)]: the EC50 came to 0.4 nM at hGLP1R (setting [3]); 0.2 nM on hGIPR (setting [4]); 2.8 nM on hGIPR (100% human plasma, read-out: hGIPR 100% hP). Besides, the solubility at 2 h in data set [1] stood at 4200 µg/mL. In data set [2], the MRT stood at 10 h.
